Columns and labels:
[1] = molecular target: T1, truncated human 11β-HSD-1 enzyme (24-287AA) (Homo sapiens, UniProt P28845); experiment: 11β-HSD-1 enzymatic Scintillation Proximity Assay (SPA); assay type: biochemical
T1 construct: truncated human 11β-HSD-1 enzyme (24-287AA); made in house; host or cells: E. coli (crude lysate)
Description: (§1) The reaction was stopped by adding a non-specific 11β-HSD inhibitor, 18β-glycyrrhetinic acid. The tritiated cortisol was captured by a mixture of an anti-cortisol monoclonal antibody and SPA beads coated with anti-mouse antibodies. The reaction plate was shaken at room temperature and the radioactivity bound to SPA beads was then measured on a β-scintillation counter. The 11-βHSD-1 assay was carried out in 96-well microtiter plates in a total volume of 220 μl. […] In order to drive the reaction in the forward direction, 1 mM G-6-P was also added. Solid compound was dissolved in DMSO to make a 10 mM stock followed by a subsequent 10-fold dilution with 3% DMSO in Tris/EDTA buffer (pH 7.4). […] Reactions were initiated by the addition of 10 μl of 0.1 mg/ml E. coli lysates overexpressing 11β-HSD-1 enzyme. After shaking and incubating plates for 30 minutes at room temperature, reactions were stopped by adding 10 μl of 1 mM glycyrrhetinic acid. The product, tritiated cortisol, was captured by adding 10 μl of […] monoclonal anti-cortisol antibodies and 100 μl SPA beads coated with anti-mouse antibodies. After shaking for 30 minutes, plates were read on a liquid scintillation counter Topcount. Percent inhibition was calculated based on the background and the maximal signal. Wells that contained substrate without compound or enzyme were used as the background, while the wells that contained substrate and enzyme without any compound were considered as maximal signal. Percent of inhibition of each compound was calculated relative to the maximal signal and IC50 curves were generated. This assay was applied to 11β-HSD-2 as well, whereby tritiated cortisol and NAD^+ were used as substrate and cofactor, respectively.

human 11-β-HSD-2 = molecular target: T2, human 11-β-HSD-2 (Homo sapiens, UniProt P80365); experiment: 11β-HSD-2 Scintillation Proximity Assay (tritiated cortisol, NAD+); assay type: biochemical; conditions: human enzyme, SPA
T2 sequence (P80365 1-405): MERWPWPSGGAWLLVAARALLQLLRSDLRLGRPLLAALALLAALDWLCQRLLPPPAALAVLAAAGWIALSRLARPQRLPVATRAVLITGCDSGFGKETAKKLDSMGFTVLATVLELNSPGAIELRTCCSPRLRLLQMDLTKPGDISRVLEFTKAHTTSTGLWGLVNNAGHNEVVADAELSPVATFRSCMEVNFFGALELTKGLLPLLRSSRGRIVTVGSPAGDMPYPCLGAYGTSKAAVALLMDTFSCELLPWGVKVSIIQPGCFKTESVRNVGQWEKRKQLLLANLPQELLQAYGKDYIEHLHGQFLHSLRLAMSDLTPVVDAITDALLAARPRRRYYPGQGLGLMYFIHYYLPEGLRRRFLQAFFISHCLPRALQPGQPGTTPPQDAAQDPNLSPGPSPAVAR
Description: as §1

T1 sequence (P28845 24-287): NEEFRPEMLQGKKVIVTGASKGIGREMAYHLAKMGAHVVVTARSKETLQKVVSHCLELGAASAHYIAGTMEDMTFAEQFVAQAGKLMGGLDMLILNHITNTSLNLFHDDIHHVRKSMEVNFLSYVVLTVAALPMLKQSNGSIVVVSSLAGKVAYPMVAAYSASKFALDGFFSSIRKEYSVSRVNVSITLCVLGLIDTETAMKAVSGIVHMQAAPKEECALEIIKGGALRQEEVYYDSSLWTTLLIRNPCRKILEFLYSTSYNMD

Cc1ccccc1CN1CCC(C)(C(=O)N[C@@H]2[C@@H]3C[C@@H]4C[C@H]2C[C@@](C(N)=O)(C4)C3)C1=O (stereo partly drawn) [CC]
IC50 [1]: 23 nM | IC50 (human 11-β-HSD-2): 12000 nM

NC(=O)[C@]12C[C@@H]3C[C@H](C1)[C@@H](NC(=O)C1(c4ccccc4)CCCC1)[C@@H](C3)C2 [Compound K, E-4-{[(1-phenylcyclopentyl)carbonyl]amino}adamantane-1-carboxamide]
IC50 [1]: 43 nM | IC50 (human 11-β-HSD-2): 16000 nM

NC(=O)[C@]12C[C@@H]3C[C@H](C1)[C@@H](NC(=O)C1(c4cccc(F)c4)CCCC1)[C@@H](C3)C2 [Compound L, E-4-({[1-(3-fluorophenyl)cyclopentyl]carbonyl}amino)adamantane-1-carboxamide]
IC50 [1]: 25 nM | IC50 (human 11-β-HSD-2): 16000 nM

NC(=O)[C@]12C[C@@H]3C[C@H](C1)[C@@H](NC(=O)C1(c4ccc(F)cc4Cl)CCCC1)[C@@H](C3)C2 [Compound M, E-4-({[1-(2-chloro-4-fluorophenyl)cyclopentyl]carbonyl}amino)adamantane-1-carboxamide]
IC50 [1]: 30 nM | IC50 (human 11-β-HSD-2): > 30000 nM

CC(C)(C(=O)N[C@@H]1[C@@H]2C[C@@H]3C[C@H]1C[C@@](C(N)=O)(C3)C2)c1ccc(-c2ccncc2)cc1 [Compound T, E-4-{[2-methyl-2-(4-pyridin-4-ylphenyl)propanoyl]amino}adamantane-1-carboxamide]
IC50 [1]: 31 nM | IC50 (human 11-β-HSD-2): > 30000 nM

CC1(C(=O)N[C@@H]2[C@@H]3C[C@@H]4C[C@H]2C[C@@](C(N)=O)(C4)C3)CCN(Cc2ccccc2Cl)C1=O (stereo partly drawn) [DD]
IC50 [1]: 23 nM | IC50 (human 11-β-HSD-2): 6300 nM

Cn1cc(-c2ccc(C(C)(C)C(=O)N[C@@H]3[C@@H]4C[C@@H]5C[C@H]3C[C@@](C(N)=O)(C5)C4)cc2)cn1 [FF, E-4-({2-methyl-2-[4-(1-methyl-1H-pyrazol-4-yl)phenyl]propanoyl}amino)adamantane-1-carboxamide]
IC50 [1]: 28 nM | IC50 (human 11-β-HSD-2): > 100000 nM

NC(=O)[C@]12C[C@@H]3C[C@H](C1)[C@@H](NC(=O)C1(c4ccc(Cl)cc4)CCCCC1)[C@@H](C3)C2 [G, E-4-({[1-(4-chlorophenyl)cyclohexyl]carbonyl}amino)adamantane-1-carboxamide]
IC50 [1]: 59 nM | IC50 (human 11-β-HSD-2): 7400 nM

CC(C)(C(=O)N[C@@H]1[C@@H]2C[C@@H]3C[C@H]1C[C@@](C(N)=O)(C3)C2)c1cccc(Br)c1 [GG, E-4-{[2-(3-bromophenyl)-2-methylpropanoyl]amino}adamantane-1-carboxamide]
IC50 [1]: 17 nM | IC50 (human 11-β-HSD-2): 9300 nM

NC(=O)[C@]12C[C@@H]3C[C@H](C1)[C@@H](NC(=O)C1(c4ccc(Cl)cc4)CC1)[C@@H](C3)C2 [H, E-4-({[1-(4-chlorophenyl)cyclopropyl]carbonyl}amino)adamantane-1-carboxamide]
IC50 [1]: 33 nM | IC50 (human 11-β-HSD-2): > 30000 nM

Cc1noc(C)c1-c1ccc(C(C)(C)C(=O)N[C@@H]2[C@@H]3C[C@@H]4C[C@H]2C[C@@](C(N)=O)(C4)C3)cc1 [HH, E-4-({2-[4-(3,5-dimethylisoxazol-4-yl)phenyl]-2-methylpropanoyl}amino)adamantane-1-carboxamide]
IC50 [1]: 44 nM | IC50 (human 11-β-HSD-2): 40000 nM

NC(=O)[C@]12C[C@@H]3C[C@H](C1)[C@@H](NC(=O)C1(c4ccc(Cl)cc4)CCCC1)[C@@H](C3)C2 [I, E-4-({[1-(4-chlorophenyl)cyclopentyl]carbonyl}amino)adamantane-1-carboxamide]
IC50 (human 11-β-HSD-2): 12000 nM

CC(C)(C(=O)N[C@@H]1[C@@H]2C[C@@H]3C[C@H]1C[C@@](C(N)=O)(C3)C2)c1ccc(-c2cccnc2)cc1 [II, E-4-{[2-methyl-2-(4-pyridin-3-ylphenyl)propanoyl]amino}adamantane-1-carboxamide]
IC50 (human 11-β-HSD-2): 44000 nM

CC(C)(C(=O)N[C@@H]1[C@@H]2C[C@@H]3C[C@H]1C[C@@](C(N)=O)(C3)C2)c1ccc(Cl)cc1 [J, E-4-{[2-(4-chlorophenyl)-2-methylpropanoyl]amino}adamantane-1-carboxamide]
IC50 [1]: 33 nM

CC(C)(C(=O)N[C@@H]1[C@@H]2C[C@@H]3C[C@H]1C[C@@](C(=O)NCc1ccc(C(=O)O)cc1)(C3)C2)c1cccs1 [JJ, 4-{[({(E)-4-[(2-methyl-2-thien-2-ylpropanoyl)amino]-1-adamantyl}carbonyl)amino]methyl}benzoic acid]
IC50 [1]: 95 nM | IC50 (human 11-β-HSD-2): 60000 nM

NC(=O)[C@]12C[C@@H]3C[C@H](C1)[C@@H](NC(=O)C1(c4ccc(F)cc4)CCCC1)[C@@H](C3)C2 [N, E-4-({[1-(4-fluorophenyl)cyclopentyl]carbonyl}amino)adamantane-1-carboxamide]
IC50 [1]: 31 nM | IC50 (human 11-β-HSD-2): > 30000 nM

NC(=O)[C@]12C[C@@H]3C[C@H](C1)[C@@H](NC(=O)C1(c4ccccc4F)CCCC1)[C@@H](C3)C2 [O, E-4-({[1-(2-fluorophenyl)cyclopentyl]carbonyl}amino)adamantane-1-carboxamide]
IC50 [1]: 38 nM | IC50 (human 11-β-HSD-2): 16000 nM

CC1(C(=O)N[C@@H]2[C@@H]3C[C@@H]4C[C@H]2C[C@@](C(N)=O)(C4)C3)CCCCC1 [P, E-4-{[(1-methylcyclohexyl)carbonyl]amino}adamantane-1-carboxamide]
IC50 [1]: 38 nM | IC50 (human 11-β-HSD-2): > 30000 nM

NC(=O)[C@]12C[C@@H]3C[C@H](C1)[C@@H](NC(=O)C1(c4ccc(Cl)cc4Cl)CC1)[C@@H](C3)C2 [Q, E-4-({[1-(2,4-dichlorophenyl)cyclopropyl]carbonyl}amino)adamantane-1-carboxamide]
IC50 [1]: 36 nM | IC50 (human 11-β-HSD-2): 16000 nM

COc1ccc(C2(C(=O)N[C@@H]3[C@@H]4C[C@@H]5C[C@H]3C[C@@](C(N)=O)(C5)C4)CC2)cc1 [R, E-4-({[1-(4-methoxyphenyl)cyclopropyl]carbonyl}amino)adamantane-1-carboxamide]
IC50 [1]: 27 nM | IC50 (human 11-β-HSD-2): 21000 nM

Cc1ccc(C2(C(=O)N[C@@H]3[C@@H]4C[C@@H]5C[C@H]3C[C@@](C(N)=O)(C5)C4)CC2)cc1 [S, E-4-({[1-(4-methylphenyl)cyclopropyl]carbonyl}amino)adamantane-1-carboxamide]
IC50 [1]: 37 nM | IC50 (human 11-β-HSD-2): 15000 nM

CC(C)(C(=O)N[C@@H]1[C@@H]2C[C@@H]3C[C@H]1C[C@@](C(N)=O)(C3)C2)c1cccs1 [U, E-4-[(2-methyl-2-thien-2-ylpropanoyl)amino]adamantane-1-carboxamide]
IC50 [1]: 16 nM | IC50 (human 11-β-HSD-2): 12000 nM

CC(C)(C(=O)N[C@@H]1[C@@H]2C[C@@H]3C[C@H]1C[C@@](C(N)=O)(C3)C2)c1ccsc1 [V, E-4-[(2-methyl-2-thien-3-ylpropanoyl)amino]adamantane-1-carboxamide]
IC50 [1]: 19 nM | IC50 (human 11-β-HSD-2): 15000 nM

CC(C)(C(=O)N[C@@H]1[C@@H]2C[C@@H]3C[C@H]1C[C@@](C(N)=O)(C3)C2)c1ccc(C(F)(F)F)cn1 [W, E-4-({2-methyl-2-[5-(trifluoromethyl)pyridin-2-yl]propanoyl}amino)adamantane-1-carboxamide]
IC50 [1]: 23 nM | IC50 (human 11-β-HSD-2): > 30000 nM

CC(C)(C(=O)N[C@@H]1[C@@H]2C[C@@H]3C[C@H]1C[C@@](C(N)=O)(C3)C2)c1ccc(-c2ccc(C(F)(F)F)cn2)cc1 [X, E-4-[(2-methyl-2-{4-[5-(trifluoromethyl)pyridin-2 yl]phenyl}propanoyl)amino]adamantane-1-carboxamide]
IC50 [1]: 104 nM | IC50 (human 11-β-HSD-2): > 30000 nM

COc1ccc(C2(C(=O)N[C@@H]3[C@@H]4C[C@@H]5C[C@H]3C[C@@](C(N)=O)(C5)C4)CCCC2)cc1 [Y, E-4-({[1-(4-methoxyphenyl)cyclopentyl]carbonyl}amino)adamantane-1-carboxamide]
IC50 [1]: 18 nM | IC50 (human 11-β-HSD-2): 13000 nM

CC(C)(C(=O)N[C@@H]1[C@@H]2C[C@@H]3C[C@H]1C[C@@](C(N)=O)(C3)C2)c1ccc(Br)cc1 [Z, E-4-{[2-(4-bromophenyl)-2-methylpropanoyl]amino}adamantane-1-carboxamide]
IC50 [1]: 21 nM | IC50 (human 11-β-HSD-2): 23000 nM

From patent US8993632B2, “Inhibitors of the 11-beta-hydroxysteroid dehydrogenase type 1 enzyme” (AbbVie Inc., priority 2005, dated 2015)
